Measurements taken from patent US10787444B2, “Compounds for the modulation of myc activity” (Syros Pharmaceuticals, Inc., priority 2015, dated 2020).
Counter-ions that a name gives are not always drawn. Like-named read-outs stand apart in the source and are kept apart here.

Assays:
[1] = test system: human small lung cancer cell line H2171; experiment: Cell Viability Assay (ATPlite); format: cell-based; conditions: read-out: H2171 Activity
Summary of the method: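 Viability readout was ATPlite luminescence, taken after 3 days' incubation at 37° C. Human SCLC H2171 cells (20,000 cells/mL) received compound right after plating, as a 10-point dose response.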

[2] = molecular target: T1, c-Myc/Max/Ebox DNA (Homo sapiens, UniProt P01106); experiment: c-Myc/Max/Ebox DNA AlphaScreen Assay; format: binding; conditions: calculated IC50 class
T1 construct: his6 (cleaved yes)
T1 sequence (P01106 whole entry): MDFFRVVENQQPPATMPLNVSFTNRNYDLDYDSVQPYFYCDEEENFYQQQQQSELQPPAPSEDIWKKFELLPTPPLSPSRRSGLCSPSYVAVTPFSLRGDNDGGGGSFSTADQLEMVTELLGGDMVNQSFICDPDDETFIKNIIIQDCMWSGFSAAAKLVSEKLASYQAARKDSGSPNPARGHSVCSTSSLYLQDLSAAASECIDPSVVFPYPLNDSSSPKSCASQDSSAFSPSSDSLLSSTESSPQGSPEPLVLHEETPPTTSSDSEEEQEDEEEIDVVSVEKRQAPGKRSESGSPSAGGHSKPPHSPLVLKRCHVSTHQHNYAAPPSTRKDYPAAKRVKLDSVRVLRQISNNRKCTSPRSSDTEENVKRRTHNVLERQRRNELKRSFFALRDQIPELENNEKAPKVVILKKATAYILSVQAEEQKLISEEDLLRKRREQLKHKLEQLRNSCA
Summary of the method: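 Compounds were preincubated with free c-Myc (20 nM), biotinylated single-Ebox DNA (10 nM) and Ni acceptor beads before his6-Max (5 nM) and streptavidin donor beads were added. Buffer was 50 mM HEPES pH 8.0, 150 mM NaCl, BSA, Tween20, glycogen and DTT, with DMSO ≤2%. After 2 h incubation, AlphaScreen signal was read at 680 nm excitation and 520–620 nm emission.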

[3] = Homo sapiens, NCI-H2171, 72 h, Table 3, compounds of FIG. 2, H2171 cells, three days, ATPlite, calculated IC50 class
[4] = Homo sapiens, NCI-H2171, 72 h, Table 2, compounds of FIG. 1, H2171 cells, three days, ATPlite, calculated IC50 class
[5] = Table 2, compounds of FIG. 1, H2171 cells, three days, ATPlite, calculated IC50 class

Structure (SMILES)	IC50 [1, 4]	IC50 ([2]; Table 2, compounds of FIG. 1)	also measured
CC(=O)Nc1sc2c(c1-c1nc3c(C)cccc3s1)CCNC2 [Compound 225, N-(3-(4-methylbenzo[d]thiazol-2-yl)-4,5,6,7-tetrahydrothieno[2,3-c]pyridin-2-yl)acetamide]	–	–	IC50 [1, 3]: < 0.3 µM; IC50 ([2]; Table 3, compounds of FIG. 2): 0.3 to 1 µM
CC[C@@H](C)NCCC(=O)Nc1sc2c(c1-c1nc3cc(C(F)(F)F)ccc3s1)CCNC2 [Compound 179, (R)-3-(sec-butylamino)-N-(3-(5-(trifluoromethyl)benzo[d]thiazol-2-yl)-4,5,6,7-tetrahydrothieno[2,3-c]pyridin-2-yl)propanamide]	< 0.3 µM	< 0.3 µM	–
CC(=O)Nc1sc2c(c1-c1nc3cc(F)ccc3s1)CCNC2 [Compound 203, N-(3-(5-fluorobenzo[d]thiazol-2-yl)-4,5,6,7-tetrahydrothieno[2,3-c]pyridin-2-yl)acetamide]	–	–	IC50 [1, 3]: 1 to 10 µM; IC50 ([2]; Table 3, compounds of FIG. 2): 1 to 10 µM
CCC(C)NCCC(=O)Nc1sc2c(c1-c1nc3ccccc3s1)CCN(C1COC1)C2 (stereo not shown) [Compound 137, N-(3-(benzo[d]thiazol-2-yl)-6-(oxetan-3-yl)-4,5,6,7-tetrahydrothieno[2,3-c]pyridin-2-yl)-3-(sec-butylamino)propanamide]	> 10 µM	1 to 10 µM	–
CCC(C)NCCC(=O)Nc1sc2c(c1-c1nc3ccccc3s1)CC[N+](C)(C(C)C)C2 (stereo not shown) [Compound 191, 3-(benzo[d]thiazol-2-yl)-2-(3-(sec-butylamino)propanamido)-6-isopropyl-6-methyl-4,5,6,7-tetrahydrothieno[2,3-c]pyridin-6-ium]	1 to 10 µM	< 0.3 µM	–
CCC(C)NCCC(=O)Nc1sc2c(c1-c1nc3cc(C(F)(F)F)ccc3s1)CCNC2 (stereo not shown) [Compound 125, 3-(sec-butylamino)-N-(3-(5-(trifluoromethyl)benzo[d]thiazol-2-yl)-4,5,6,7-tetrahydrothieno[2,3-c]pyridin-2-yl) propanamide]	0.3 to 1 µM	0.3 to 1 µM	–
CC(=O)Nc1sc2c(c1-c1nc3ccccc3s1)CCC(NC1CCNCC1)C2 (stereo not shown) [Compound 227, N-(3-(benzo[d]thiazol-2-yl)-6-(piperidin-4-ylamino)-4,5,6,7-tetrahydrobenzo[b]thiophen-2-yl)acetamide]	–	–	IC50 [1, 3]: < 0.3 µM; IC50 ([2]; Table 3, compounds of FIG. 2): > 10 µM
CCOC(=O)CCOCCOCCOCCOCCOCCOCCNCCC(=O)Nc1sc2c(c1-c1nc3ccccc3s1)CCNC2 [Compound 622, Ethyl 1-((3-(benzo[d]thiazol-2-yl)-4,5,6,7-tetrahydrothieno[2,3-c]pyridin-2-yl)amino)-1-oxo-7,10,13,16,19,22-hexaoxa-4-azapentacosan-25-oate]	< 0.3 µM	< 0.3 µM	–
CC(=O)Nc1sc2c(c1-c1nc3ccccc3s1)C(F)CN(C(C)C)C2 (stereo not shown) [Compound 220, N-(3-(benzo[d]thiazol-2-yl)-4-fluoro-6-isopropyl-4,5,6,7-tetrahydrothieno[2,3-c]pyridin-2-yl) acetamide]	–	–	IC50 ([1]; Homo sapiens, NCI-H2171, 72 h): > 10 µM; IC50 ([2]; Table 3, compounds of FIG. 2): 1 to 10 µM
CC[C@@H](C)NCCC(=O)Nc1sc2c(c1-c1nc3ccccc3s1)CCNC2 [Compound 153, (R)—N-(3-(benzo[d]thiazol-2-yl)-4,5,6,7-tetrahydrothieno[2,3-c]pyridin-2-yl)-3-(sec-butylamino)propanamide]	< 0.3 µM	0.3 to 1 µM	–
CC[C@H](C)NCCC(=O)Nc1sc2c(c1-c1nc3ccccc3s1)CCNC2 [Compound 154, (S)—N-(3-(benzo[d]thiazol-2-yl)-4,5,6,7-tetrahydrothieno[2,3-c]pyridin-2-yl)-3-(sec-butylamino) propanamide]	< 0.3 µM	0.3 to 1 µM	–
CCN(C)CCC(=O)Nc1sc2c(c1-c1nc3ccccc3s1)CCN(C(C)C)C2 [Compound 572]	< 0.3 µM	0.3 to 1 µM	–
CCC(C)NCCC(=O)Nc1sc2c(c1-c1nc3cc4c(cc3s1)OCO4)CCN(C(C)C)C2 (stereo not shown) [Compound 563, N-(3-([1,3]Dioxolo[4′,5′:4,5]benzo[1,2-d]thiazol-6-yl)-6-isopropyl-4,5,6,7-tetrahydrothieno[2,3-c]pyridin-2-yl)-3-(sec-butylamino)propanamide]	< 0.3 µM	< 0.3 µM	–
COc1ccc2sc(-c3c(NC(=O)CCNC(C)C)sc4c3CCNC4)nc2c1 [compound 316]	< 0.3 µM	< 0.3 µM	–
COCCNCCC(=O)Nc1sc2c(c1-c1nc3cc(C(F)(F)F)ccc3s1)CCN(C(C)C)C2 [Compound 575, N-(6-Isopropyl-3-(5-(trifluoromethyl)benzo[d]thiazol-2-yl)-4,5,6,7-tetrahydrothieno[2,3-c]pyridin-2-yl)-3-((2-methoxyethyl)amino) propanamide]	< 0.3 µM	< 0.3 µM	–
COCCNCCC(=O)Nc1sc2c(c1-c1nc3c(OC)cccc3s1)CCNC2 [Compound 613, N-(3-(4-Methoxybenzo[d]thiazol-2-yl)-4,5,6,7-tetrahydrothieno[2,3-c]pyridin-2-yl)-3-((2-methoxyethyl)amino)propanamide dihydrochloride]	0.3 to 1 µM	1 to 10 µM	–
C=Cc1ccc2sc(-c3c(NC(=O)CCNC(C)C)sc4c3CCNC4)nc2c1 [Compound 321, 3-(Isopropylamino)-N-(3-(5-vinylbenzo[d]thiazol-2-yl)-4,5,6,7-tetrahydrothieno[2,3-c]pyridin-2-yl)propanamide]	< 0.3 µM	0.3 to 1 µM	–
CC(C)NCCC(=O)Nc1sc2c(c1-c1nc3cc(C(=O)N4CCN(C)CC4)ccc3s1)CCNC2 [Compound 324, 3-(Isopropylamino)-N-(3-(5-(4-methylpiperazine-1-carbonyl)benzo[d]thiazol-2-yl)-4,5,6,7-tetrahydrothieno[2,3-c]pyridin-2-yl)propanamide]	1 to 10 µM	0.3 to 1 µM	–

More lines, main results first:

IC50 [1, 4]	IC50 ([2]; Table 2, compounds of FIG. 1)	Structure (SMILES)	also measured
–	1 to 10 µM	CC(C)NCCC(=O)Nc1sc2c(c1-c1nc3ccccc3s1)CC(C)NC2C (single isomer, unassigned) [Compound 198, N-(3-(benzo[d]thiazol-2-yl)-5,7-dimethyl-4,5,6,7-tetrahydrothieno[2,3-c]pyridin-2-yl)-3-(isopropylamino)propanamide]	IC50 [1, 5]: < 0.3 µM
–	> 10 µM	CC[C@H](C)NCCC(=O)Nc1sc2c(c1-c1nc3ccccc3s1)CC(C)NC2C (single isomer, unassigned) [Compound 621]	IC50 [1, 5]: 1 to 10 µM
–	1 to 10 µM	CC(C)NCCC(=O)Nc1sc2c(c1-c1nc3ccccc3s1)CC(C)NC2C (single isomer, unassigned) [Compound 197, N-(3-(benzo[d]thiazol-2-yl)-5,7-dimethyl-4,5,6,7-tetrahydrothieno[2,3-c]pyridin-2-yl)-3-(isopropylamino)propanamide]	IC50 [1, 5]: 0.3 to 1 µM
–	1 to 10 µM	COCCNCCC(=O)Nc1sc2c(c1-c1nc3cc(-c4cccnc4)ccc3s1)CC(C)NC2C (single isomer, unassigned) [Compound 526, N-(5,7-Dimethyl-3-(5-(pyridin-3-yl)benzo[d]thiazol-2-yl)-4,5,6,7-tetrahydrothieno[2,3-c]pyridin-2-yl)-3-((2-methoxyethyl)amino)propanamide]	IC50 [1, 5]: 0.3 to 1 µM
< 0.3 µM	< 0.3 µM	CCC(C)NCCC(=O)Nc1sc2c(c1-c1nc3cc(-c4cn[nH]c4)ccc3s1)CCNC2 (stereo not shown) [compound 151]	–
–	< 0.3 µM	COCCNCCC(=O)Nc1sc2c(c1-c1nc3cc(-c4ccncc4)ccc3s1)CCNC2C (single isomer, unassigned) [Compound 548, 3-((2-Methoxyethyl)amino)-N-(7-methyl-3-(5-(pyridin-4-yl)benzo[d]thiazol-2-yl)-4,5,6,7-tetrahydrothieno[2,3-c]pyridin-2-yl)propanamide]	IC50 [1, 5]: < 0.3 µM
< 0.3 µM	< 0.3 µM	CC[C@H](C)NCCC(=O)Nc1sc2c(c1-c1nc3cc(-c4ccncc4)ccc3s1)CCNC2 [Compound 579, (S)-3-(sec-butylamino)-N-(3-(5-(pyridin-4-yl)benzo[d]thiazol-2-yl)-4,5,6,7-tetrahydrothieno[2,3-c]pyridin-2-yl)Propanamide]	–
< 0.3 µM	< 0.3 µM	COCCNCCC(=O)Nc1sc2c(c1-c1nc3cc(-c4ccnc(NC(C)=O)c4)ccc3s1)CCNC2 [compound 342]	–
0.3 to 1 µM	< 0.3 µM	COCCNCCC(=O)Nc1sc2c(c1-c1nc3cc(-c4cccnc4)ccc3s1)CC(C)NC2C (single isomer, unassigned) [Compound 524, N-(5,7-Dimethyl-3-(5-(pyridin-3-yl)benzo[d]thiazol-2-yl)-4,5,6,7-tetrahydrothieno[2,3-c]pyridin-2-yl)-3-((2-methoxyethyl)amino)propanamide]	–
< 0.3 µM	0.3 to 1 µM	CC(C)NCCC(=O)Nc1sc2c(c1-c1nc3cc(C(=O)Nc4cccnc4)ccc3s1)CCNC2 [Compound 510, 2-(2-(3-(Isopropylamino)propanamido)-4,5,6,7-tetrahydrothieno[2,3-c]pyridin-3-yl)-N-(pyridin-3-yl)benzo[d]thiazole-5-carboxamide]	–
< 0.3 µM	< 0.3 µM	COCCNCCC(=O)Nc1sc2c(c1-c1nc3cc(-c4ccncc4)ccc3s1)CC(C)NC2C (single isomer, unassigned) [Compound 521, N-(5,7-dimethyl-3-(5-(pyridin-4-yl)benzo[d]thiazol-2-yl)-4,5,6,7-tetrahydrothieno[2,3-c]pyridin-2-yl)-3-((2-methoxyethyl)amino)propanamide]	–
